Data on 3 compounds can be found in patent US8980910B2, “Treatment of glaucoma” (Indiana University Research and Technology Corporation, priority 2011, dated 2015).

Entries after “also recorded” stand apart in the source; their conditions may differ.

Experiment [1] relates to isoflurane-anesthetized rats. The experiment can be described thus: infusion of bicuculline methiodide into the region of the DMH, simultaneous measurement of blood pressure, heart rate and IOP. The class given is in vivo, rat. To be noted: BMI 30 pmol/75 nL into the DMH vs saline vehicle. As for the experimental part:
FIG. 2A-C Simultaneous measurement of blood pressure (FIG. 2A), heart rate (FIG. 2B), and IOP (FIG. 2C) in a series of isoflurane-anesthetized rats after infusion of bicuculline methiodide (30 pmol/75 nL; n=9) or saline vehicle (75 nL; n=10) into the region of the DMH. * indicates a significant difference (p<0.05) between the vehicle treated and the BMI treated group using a repeated measures ANOVA followed by post-hoc analysis for differences between timepoints using a t-test.
To investigate whether orexin containing neurons located in the dorsornedial hypothalamus (DMH) and/or perifornical (PeF) area play a role in mediating the circadian fluctuations in IOP, isoflurane-anesthetized rats were administered orexin inhibitors and their vital functions were monitored.

The test system of experiment [2] is isoflurane anesthetized rat. The experiment can be described thus: attenuation of physiologic responses to BMI microinjection into the DMH by systemic orexin-1 receptor antagonist. It is filed as in vivo. To be noted: 30 mg/kg i.p.; BMI 20 pmol/50 nL into the DMH before and after antagonist; FIG. 3; listed as SB334861. How it is done: FIG. 3 Continuous and simultaneous measurement of blood pressure, heart rate, and core body temperature in an isoflurane anesthetized rat after identical microinjections of BMI (20 pmol/50 nL) into the DMH (time marks 1 and 3) before and after systemic administration of the orexin-1 receptor antagonist SB334861 (30 mg/kg i.p.; time mark 2).
Experiments were then conducted to determine whether an orexin-I receptor antagonist (SB334861) could attenuate the physiologic responses to chemical stimulation of the DMH. To test orexin inhibitors ability to attenuate the BMI stimulated response, BMI was administered to an isoflurane-anesthetized rat both before and after administration of the orexin inhibitor and the responses were monitored.

In another experiment the test system is panic-prone rats. To be noted: 30 mg/kg i.p. prior to 15 min i.v. infusion of 0.5M sodium lactate. From the text: Panic disorder is associated with disruption of central inhibitory gamma-aminobutyric acid (GABAergic) tone, and may contribute to panic attacks which are consistently provoked by ordinarily mild physical stressors such as mild osmotic disturbances (e.g., intravenous sodium lactate challenges). […] Orexin/hypocretin producing neurons are almost exclusive to dorsomedial hypothalamus/perifornical area and adjacent lateral hypothalamus, and play a critical role in maintaining wakefulness, vigilance and central sympathetic mobilization, which are key components of panic and anxiety. Experiments were conducted to investigate whether the administration of either a systemic orexin 1 antagonist or silencing the hypothalamic orexin gene product with RNA interference could block lactate-induced panic responses.

Experiment [3] deals with T1, orexin receptor-1 (ORX 1) (Homo sapiens, UniProt O43613).
T1 sequence (O43613 1-425): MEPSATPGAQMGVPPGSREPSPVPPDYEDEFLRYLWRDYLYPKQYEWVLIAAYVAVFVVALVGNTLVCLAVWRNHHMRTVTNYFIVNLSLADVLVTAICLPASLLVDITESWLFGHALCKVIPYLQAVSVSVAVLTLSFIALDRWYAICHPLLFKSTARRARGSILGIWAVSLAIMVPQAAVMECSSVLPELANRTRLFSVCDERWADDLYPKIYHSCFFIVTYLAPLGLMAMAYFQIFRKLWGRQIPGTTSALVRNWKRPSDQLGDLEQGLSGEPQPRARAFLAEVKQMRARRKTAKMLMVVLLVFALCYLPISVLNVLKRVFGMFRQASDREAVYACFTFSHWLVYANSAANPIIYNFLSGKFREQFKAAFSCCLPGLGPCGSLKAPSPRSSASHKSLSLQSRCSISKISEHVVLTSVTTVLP
To be noted: orexin A relative to orexin B; cited from earlier work.

As for `C[N+]1(C)CCc2cc3c(cc2[C@H]1[C@@H]1OC(=O)c2c1ccc1c2OCO1)OCO3.[I-]` [BMI, bicuculline methiodide], in experiment [1] (FIG. 2A), the “blood pressure after chemical stimulation of the DMH” value was “expected increases”. Also, in experiment [1] (FIG. 2B), the “heart rate after chemical stimulation of the DMH” value is “expected increases”. Moreover, the “IOP after chemical stimulation of the DMH” value in experiment [1] (FIG. 2C) was “evoked an increase”.
On to `Cc1nc2ccc(NC(=O)Nc3ccnc4cccnc34)cc2o1` [SB334867, 1-(2-methylbenzoxazol-6-yl)-3-[1,5]naphthyridin-4-yl urea], for which, in experiment [2], the “BMI-evoked increase in blood pressure” value is recorded as “significant attenuation”, the “BMI-evoked increase in core body temperature” value is given as “significant attenuation” and the “BMI-evoked increase in heart rate” value is recorded as “significant attenuation”. The “lactate induced increases in core body temperature (thermogenic response)” value in the experiment on panic-prone rats (FIG. 1C) is “attenuated; also recorded: blocks”. Besides, the “lactate induced increases in heart rate (cardioexcitatory response)” value with panic-prone rats (FIG. 1D) is on record as “attenuated; also recorded: blocks”.
Take “orexin A: 33-amino acid neuropeptide, endogenous ligand of orexin receptors (QPLPDCCRQKTCSCRLYELLHGAGNHAAGILTL; Orexin-A; UniProt O43612 34-66, looked up)”: the “affinity of ORX 1 for orexin A greater than for orexin B” value in experiment [3] is listed as 1 order of magnitude.
